Results as given in patent EP3319959B1, “HETERO-HALO INHIBITORS OF HISTONE DEACETYLASE” (Alkermes, Inc., priority 2015, dated 2017).

Key:
Format in all cases: binding
HDAC1 = HDAC1 (Homo sapiens, UniProt Q13547); assay: Reporter displacement assay (HDAC1)
HDAC2 [1] = target: T1, HDAC2 (Homo sapiens, UniProt Q92769); assay: Reporter displacement assay (HDAC2); conditions: 20 nM HDAC2, 180 nM reporter probe, read after 4 hours; Kd by Cheng Prusoff equation
T1 construct: purchased Proteros
Experimental: HDAC2 containing a C-terminal HIS-Tag (Proteros) and fluorescently-labeled anti-HIS-antibody are diluted in one vial in assay buffer 50 mM Tris, pH 8.0, 1 mM DTT, 150 mM NaCl, and 0.01% Tween20. Components are pre-incubated for 30 min, then a small volume of reporter probe (Proteros) is added from a highly concentrated stock and incubation is continued for another 30 min. […] Ten µl/well of pre-formed complex are transferred into 384 well assay plates (Corning). Compounds to be profiled are serially diluted from 1x10^1 - 5.7x10^-5 mM in DMSO and 60 nl are added to assay plates by pintool transfer (CybiWell, Cybio). Fluorescence intensity signal is read after 4 hours in a Pherastar FS (BMG Labtech) at 337/665 nm. For Kd determination, percent probe displacement values are calculated for each compound concentration and plotted against the compound concentration. […] Since the reporter probe is used at a concentration reflecting its own Kd value, compound Kd values can be calculated according to the Cheng Prusoff equation. […] Table 4. HDAC1 and HDAC2 Kd Values for Exemplary Compounds Useful in the Invention

HDAC2 [2] = target: T1, HDAC2; assay: Reporter displacement assay (HDAC2)

T1 sequence (Q92769 whole entry): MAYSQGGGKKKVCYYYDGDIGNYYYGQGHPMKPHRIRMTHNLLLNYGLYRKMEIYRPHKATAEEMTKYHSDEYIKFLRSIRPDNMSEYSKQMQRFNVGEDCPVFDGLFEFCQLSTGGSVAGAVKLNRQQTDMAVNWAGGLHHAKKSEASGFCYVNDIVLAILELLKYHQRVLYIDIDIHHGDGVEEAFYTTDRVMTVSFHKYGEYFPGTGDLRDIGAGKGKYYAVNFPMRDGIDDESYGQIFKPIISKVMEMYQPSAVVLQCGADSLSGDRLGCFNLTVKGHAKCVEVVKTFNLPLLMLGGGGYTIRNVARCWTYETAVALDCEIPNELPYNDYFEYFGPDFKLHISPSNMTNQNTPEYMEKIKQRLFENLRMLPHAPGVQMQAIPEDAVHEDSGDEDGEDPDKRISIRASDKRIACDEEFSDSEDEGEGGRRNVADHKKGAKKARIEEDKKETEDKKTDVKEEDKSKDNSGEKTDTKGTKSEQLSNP
Chain of HDAC1 (Q13547 whole entry): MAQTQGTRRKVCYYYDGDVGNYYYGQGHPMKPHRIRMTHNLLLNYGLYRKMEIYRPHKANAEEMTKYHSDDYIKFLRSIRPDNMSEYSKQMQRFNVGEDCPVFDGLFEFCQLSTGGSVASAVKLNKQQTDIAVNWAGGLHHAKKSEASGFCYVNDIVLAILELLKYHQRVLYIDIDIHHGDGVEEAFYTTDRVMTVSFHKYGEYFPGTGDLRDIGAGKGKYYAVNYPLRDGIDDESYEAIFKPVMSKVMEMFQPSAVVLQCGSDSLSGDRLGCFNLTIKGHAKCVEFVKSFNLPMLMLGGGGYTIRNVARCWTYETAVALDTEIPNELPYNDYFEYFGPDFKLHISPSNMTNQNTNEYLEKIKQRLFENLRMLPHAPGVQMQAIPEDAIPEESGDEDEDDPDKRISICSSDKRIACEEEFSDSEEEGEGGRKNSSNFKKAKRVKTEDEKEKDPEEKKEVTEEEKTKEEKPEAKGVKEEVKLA

Kd (HDAC1)	residence time (HDAC1)	Kd (HDAC2 [1])	residence time (HDAC2 [2])	Structure (SMILES)
500 to 5000 nM	87 min	500 to 5000 nM	114 min	Nc1cc(F)c(-c2ccc(F)c(F)c2)cc1NC(=O)N1CCCC1 [Compound 116]
500 to 5000 nM	653 min	500 to 5000 nM	1280 min	Nc1ccc(-c2ccc(F)cc2)nc1NC(=O)N1CCCC1 [Compound 107]
100 to 500 nM	572 min	100 to 500 nM	2380 min	Nc1cn(-c2ccccc2)nc1NC(=O)N1Cc2ccncc2C1 [Compound 122]
100 to 500 nM	126 min	100 to 500 nM	1200 min	Nc1cc(F)c(-c2ccc(F)cc2)cc1NC(=O)N1Cc2nccnc2C1 [Compound 119]
< 100 nM	350 min	100 to 500 nM	609 min	Nc1ccc(-c2ccc(F)cc2)c(F)c1NC(=O)N1Cc2nccnc2C1 [Compound 113]
100 to 500 nM	329 min	100 to 500 nM	790 min	Nc1ccc(-c2ccc(F)cc2)c(F)c1NC(=O)N1CCCC1 [Compound 112]
